How the values were obtained:
Kupffer cells and RES [1] = experiment: hepatic uptake of colloidal carbon; assay type: in vivo, rat; settings: zymosan 2,500 μg/100 g i.v. twice, 48 and 24 hr before carbon; GdCl3 500 μg/100 g i.v. once, 24 hour before (FIG. 3)
Procedure: (§1) All of the experiments were performed in female Spraque-Dawley rats (ESS Laboratories, Lynnfield, Mass.) with an initial body weight of 150-180 g, and with unlimited access to Purina laboratory chow and tap water. Control and experimental groups consisted of 3-4 rats. Each experiment was repeated at least twice and the results were pooled. Linear or cyclic somatostatin (Serono) was injected under mild ether anesthesia at 10, 50, 100 or 250 μg in 0.5 ml of saline into the jugular vein once daily for 4 consecutive days in the dose-response study (FIG. 1). Control animals were injected with the same amount of saline. In the time-response study, 0, 1, 2, 3 or 4 daily doses of somatostatin, 50 μg, were injected i.v. (FIG. 2). In the comparative experiments, somatostatin, 250 μg, i.v., was given as in the first study, and standard doses of zymosan (Sigma 2,500 μg/100 g i.v.; twice, 48 and 24 hr before colloidal carbon) and the reticuloendothelial system (RES) blocker gadolinium chloride (Sigma; 500 μg/100 g i.v.; once, 24 hour prior to india ink) were administered to additional groups of rats (FIG. 3). […] A piece of liver was digested in concentrated mineral acid, and, following organic extraction, the concentration of carbon, as in blood hemolysates, was measured spectrophotometrically at 660 nm using the method of Takahashi and Matsuoka (J. Toxicol. Sci., S., 1 (1980).

Kupffer cells and RES [2] = experiment: colloidal carbon clearance from the blood (phagocytic index K); assay type: in vivo, rat; settings: for clearing potency order by change in K caused by 100 μg of treatment (ΔK/100 μg): crude comparison, rank order
Procedure: All of the experiments were performed in female Spraque-Dawley rats (ESS Laboratories, Lynnfield, Mass.) with an initial body weight of 150-180 g, and with unlimited access to Purina laboratory chow and tap water. Control and experimental groups consisted of 3-4 rats. Each experiment was repeated at least twice and the results were pooled. Linear or cyclic somatostatin (Serono) was injected under mild ether anesthesia at 10, 50, 100 or 250 μg in 0.5 ml of saline into the jugular vein once daily for 4 consecutive days in the dose-response study (FIG. 1). Control animals were injected with the same amount of saline. In the time-response study, 0, 1, 2, 3 or 4 daily doses of somatostatin, 50 μg, were injected i.v. (FIG. 2). In the comparative experiments, somatostatin, 250 μg, i.v., was given as in the first study, and standard doses of zymosan (Sigma 2,500 μg/100 g i.v.; twice, 48 and 24 hr before colloidal carbon) and the reticuloendothelial system (RES) blocker gadolinium chloride (Sigma; 500 μg/100 g i.v.; once, 24 hour prior to india ink) were administered to additional groups of rats (FIG. 3). In all of the experiments, 0.1 ml/100 g of the supernatant of centrifuged (3000 rpm/15 min) colloidal carbon (Wagner's india ink) was injected i.v. under mild ether anesthesia. Blood samples (50 μl ) were obtained with heparinized glass capillaries and by puncture of the retro-orbital venous plexus at 3, 6, 12 and 24 minutes after the administration of carbon. The blood samples were lysed in 2 ml of 0.1% Na2 CO3 solution. After 24 minutes, the rats were killed, and the livers were perfused through the portal vein with 20 ml saline to remove trapped blood. Samples of liver, spleen, lung and kidney were fixed in 10% formalin and subsequently processed for light microscopy. A piece of liver was digested in concentrated mineral acid, and, following organic extraction, the concentration of carbon, as in blood hemolysates, was measured spectrophotometrically at 660 nm using the method of Takahashi and Matsuoka (J. Toxicol. Sci., S., 1 (1980).
The phagocytic index or K value was calculated as described by others (Takahashi and Matsuoka, ibid; Biozzi et al, J. Exp. Pathol., 34, 441 (1953)) to indicate the carbon clearance for the blood. Since it was evident that the effect of treatment was maximal on carbon clearance during the first 6 or 12 minutes, K values were obtained only for this time interval. For statistical evaluation, Student's two-tailed t-test was used.

[3] = pretreatment with exogenous somatostatin; cited from earlier work
Kupffer cells = experiment: light microscopic examination of liver sections for carbon particles; assay type: in vivo, rat; settings: periportal areas, 24 minutes after carbon
Procedure: as §1

[4] = in vivo; cited from earlier work
[5] = in vivo; cited from earlier work; remark: listed apart in the source

Molecule	uptake of the carbon to the liver, comparative experiment (Kupffer cells and RES [1])	clearing potency order by change in K caused by 100 μg of treatment (ΔK/100 μg) (Kupffer cells and RES [2])	carbon clearance from the blood, comparative experiment (Kupffer cells and RES [2]; zymosan 2,500 μg/100 g i.v. twice, 48 and 24 hr before carbon, GdCl3 500 μg/100 g i.v. once, 24 hour before (FIG. 3))	cysteamine-induced duodenal ulcer [3]	gastric acid output [3]	carbon deposition in liver macrophages (light microscopy) (Kupffer cells)	effect on experimentally induced pancreatitis [4]	colloidal carbon clearance from the blood, dose-response (Kupffer cells and RES [2]; 10 μg i.v. once daily for 4 days (FIG. 1))	colloidal carbon clearance from the blood, dose-response (Kupffer cells and RES [2]; doses of 50, 100 or 250 μg i.v. once daily for 4 days (FIG. 1))	colloidal carbon clearance from the blood (Kupffer cells and RES [2]; female Sprague-Dawley rats, somatostatin i.v. once daily for 4 days vs saline, effect most dramatic during first 6-12 minutes (FIG. 1))	phagocytic index or K value (Kupffer cells and RES [2]; time-response study, 50 μg i.v., three or four doses (one per day) (FIG. 2))	effect on adrenal and lung lesions [5]
[Cl][Gd]([Cl])[Cl] [GdCl3, gadolinium chloride]	inhibited	somatostatin >zymosan >GdCl3	inhibited	–	–	–	–	–	–	–	–	–
somatostatin	–	somatostatin >zymosan >GdCl3	–	prevents	minimal inhibition	caused numerous macrophages to take up carbons	beneficial effect	less effective than the other doses	very similar results	markedly accelerated	significantly enhanced	beneficial effect

Source: patent publication US4569926A, “Stimulation of phagocytosis with somatostatin” (Brigham and Women's Hospital, priority 1983, dated 1986)
